Test results: paper PMC10584170, “Machine learning-based phenotypic imaging to characterise the targetable biology of Plasmodium falciparum male gametocytes for the development of transmission-blocking antimalarials” (PLOS Pathogens, 2023)
Like-named read-outs stand apart in the source and are kept apart here.

Columns and labels:
[1] = test system: P. falciparum male gametocytes; test: P. falciparum Dual Gamete Formation Assay (PfDGFA), male readout (exflagellation); type: cell-based, Plasmodium falciparum NF54; conditions: for Selectivity Ratio M: HepG2 Tox50 versus male IC50; for IC50: read-out: Male IC50; for HitlevelM: number of replicates with >50% inhibition in the male readout
Outline: (§1)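 First, day-14 P. falciparum NF54 gametocytes receive compound for 24 h at 37°C in 1% O2/3% CO2. Next, ookinete medium with Cy3 anti-Pfs25 triggers gametogenesis at 28°C and male exflagellation is imaged. Finally, after 24 h in the dark, Cy3-labelled females are imaged.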

[2] = test system: P. falciparum female gametocytes; test: P. falciparum Dual Gamete Formation Assay (PfDGFA), female readout (Pfs25-positive female gametes); type: cell-based, Plasmodium falciparum NF54; conditions: for Selectivity ratio F: HepG2 Tox50 versus female IC50; for IC50: read-out: Female IC50; for HitlevelF: number of replicates with >50% inhibition in the female readout
Outline: as §1

[3] = test system: HepG2 cells; test: HepG2 cytotoxicity counter-screen; conditions: cytotoxic activity against HepG2 cells
[4] = 2µM, 24h preincubation with gametocytes, average of replicates
[5] = 2µM, 24h preincubation with gametocytes, replicate R1
[6] = 2µM, 24h preincubation with gametocytes, replicate R3
[7] = 2µM, 24h preincubation with gametocytes, replicate R4
[8] = PfDGFA, 24 h incubation with gametocytes before induction, exflagellation readout
[9] = PfDGFA, 24 h incubation with gametocytes before induction, female gamete readout
[10] = PfDGFA at 2µM, 24h preincubation with gametocytes, average of replicates
[11] = PfDGFA at 2µM, 24h preincubation with gametocytes, replicate R1
[12] = PfDGFA at 2µM, 24h preincubation with gametocytes, replicate R3
[13] = PfDGFA at 2µM, 24h preincubation with gametocytes, replicate R4

Row | Compound | Average inhibition male (%) [1, 4] | % inhibition male (individual replicates) R1 [1, 5] | % inhibition male (individual replicates) R3 [1, 6] | % inhibition male (individual replicates) R4 [1, 7] | Selectivity Ratio M [1] | IC50 [1, 8] | Average inhibition female (%) [2, 4] | % inhibition female (individual replicates) R1 [2, 5] | % inhibition female (individual replicates) R3 [2, 6] | % inhibition female (individual replicates) R4 [2, 7] | Selectivity ratio F [2] | IC50 [2, 9] | Tox50 [3] | Average inhibition male (%) [1, 10] | % inhibition male (individual replicates) R1 [1, 11] | % inhibition male (individual replicates) R3 [1, 12] | % inhibition male (individual replicates) R4 [1, 13] | HitlevelM ([1]; 2µM) | Average inhibition female (%) [2, 10] | % inhibition female (individual replicates) R1 [2, 11] | other results
1 | CS(=O)(=O)O.CSc1ccc2ccccc2c1CCNCCCCNCCc1c(SC)ccc2ccccc12 [TCMDC-137763] | 90.7% | 94.6% | 73.0% | 98.9% | 2.67 | 1.4 µM | 55.5% | 47.6% | 28.5% | 71.9% | 1.79 | 2.08 µM | 3.73 µM | – | – | – | – | – | – | – | –
2 | CCC1=C[C@@H]2CN(C1)Cc1c([nH]c3ccccc13)[C@@](C(=O)OC)(c1cc3c(cc1OC)N(C)[C@H]1[C@@](O)(C(=O)OC)[C@H](O)[C@]4(CC)C=CCN5CC[C@]31[C@@H]54)C2.O=S(=O)(O)O [TCMDC-137769] | – | – | – | – | 5697.96 | – | – | – | – | – | 5.57 | – | 55.68 µM | – | – | – | – | – | – | – | IC50 ([1]; Plasmodium falciparum, 24 h): 0.01 µM; inhibition at 2 µM ([1]; Plasmodium falciparum, read-out: % inhibition male (individual replicates) R1): 101%; inhibition at 2 µM ([1]; Plasmodium falciparum, read-out: % inhibition male (individual replicates) R2): 99.3%; inhibition at 2 µM ([1]; Plasmodium falciparum, read-out: % inhibition male (individual replicates) R4): 103%; inhibition at 2 µM ([1]; Plasmodium falciparum, read-out: Average inhibition male (%)): 101%; IC50 ([2]; Plasmodium falciparum, 24 h): > 10 µM; inhibition at 2 µM ([2]; Plasmodium falciparum, read-out: % inhibition female (individual replicates) R1): 4.8%; inhibition at 2 µM ([2]; Plasmodium falciparum, read-out: % inhibition female (individual replicates) R2): -7.3%; inhibition at 2 µM ([2]; Plasmodium falciparum, read-out: % inhibition female (individual replicates) R3): 2.7%; inhibition at 2 µM ([2]; Plasmodium falciparum, read-out: % inhibition female (individual replicates) R4): 9.5%; inhibition at 2 µM ([2]; Plasmodium falciparum, read-out: Average inhibition female (%)): 2.4%
3 | CC(=NNC(=S)NC(C)(C)C)c1ccccn1 [TCMDC-137783] | 101.1% | 99.9% | 98.6% | 104.2% | 0.9 | 0.11 µM | 58.4% | 41.7% | 38.4% | 72.1% | 0.11 | 0.97 µM | 0.1 µM | – | – | – | – | – | – | – | –
4 | COc1ccc2ccc(OC)c(CNCCCCCCNCc3c(OC)ccc4ccc(OC)cc34)c2c1.CS(=O)(=O)O [TCMDC-137796] | 93.5% | 89.3% | 82.0% | 102.2% | 2.84 | 1.43 µM | 38.4% | 29.7% | 9.8% | 40.9% | 1.12 | 3.65 µM | 4.07 µM | – | – | – | – | – | – | – | –
5 | Br.c1cc(C2=NC3CCCCC3N2)ccc1OCCCOc1ccc(C2=NC3CCCCC3N2)cc1 (stereo not shown) [TCMDC-137803] | – | – | – | – | 32.57 | – | – | – | – | – | 3.68 | – | 36.78 µM | – | – | – | – | – | – | – | inhibition at 2 µM ([1]; Plasmodium falciparum, 2µM, 24h preincubation with gametocytes, average of replicates, read-out: Average inhibition male (%)): 96.1%; inhibition at 2 µM ([1]; Plasmodium falciparum, 2µM, 24h preincubation with gametocytes, replicate R1, read-out: % inhibition male (individual replicates) R1): 93.1%; inhibition at 2 µM ([1]; Plasmodium falciparum, 2µM, 24h preincubation with gametocytes, replicate R2, read-out: % inhibition male (individual replicates) R2): 96.3%; inhibition at 2 µM ([1]; Plasmodium falciparum, 2µM, 24h preincubation with gametocytes, replicate R3, read-out: % inhibition male (individual replicates) R3): 92.1%; inhibition at 2 µM ([1]; Plasmodium falciparum, 2µM, 24h preincubation with gametocytes, replicate R4, read-out: % inhibition male (individual replicates) R4): 103%; IC50 ([1]; Plasmodium falciparum, PfDGFA, 24 h incubation with gametocytes before induction, exflagellation readout): 1.13 µM; inhibition at 2 µM ([2]; Plasmodium falciparum, 2µM, 24h preincubation with gametocytes, average of replicates, read-out: Average inhibition female (%)): 39.4%; inhibition at 2 µM ([2]; Plasmodium falciparum, 2µM, 24h preincubation with gametocytes, replicate R1, read-out: % inhibition female (individual replicates) R1): 33.6%; inhibition at 2 µM ([2]; Plasmodium falciparum, 2µM, 24h preincubation with gametocytes, replicate R2, read-out: % inhibition female (individual replicates) R2): 49.2%; inhibition at 2 µM ([2]; Plasmodium falciparum, 2µM, 24h preincubation with gametocytes, replicate R3, read-out: % inhibition female (individual replicates) R3): 5.9%; inhibition at 2 µM ([2]; Plasmodium falciparum, 2µM, 24h preincubation with gametocytes, replicate R4, read-out: % inhibition female (individual replicates) R4): 68.9%; IC50 ([2]; Plasmodium falciparum, PfDGFA, 24 h incubation with gametocytes before induction, female gamete readout): > 10 µM
6 | Nc1nc(N)c2c(ccc3c2ccn3Cc2ccc3c(c2)OCO3)n1 [TCMDC-137808] | – | – | – | – | 0.19 | 0.76 µM | – | – | – | – | 0.18 | 0.84 µM | 0.15 µM | 70.0% | 66.3% | 77.8% | 76.3% | 4 | 83.7% | 77.5% | % inhibition female (individual replicates) R3 [2, 12]: 80.4%; % inhibition female (individual replicates) R4 [2, 13]: 88.7%; HitlevelF ([2]; 2µM): 4
7 | Nc1nc(N)c2c(ccc3c2ccn3Cc2ccc(-c3ccccc3)cc2)n1 [TCMDC-137813] | – | – | – | – | 0.97 | 0.47 µM | – | – | – | – | 0.44 | 1.03 µM | 0.46 µM | 70.1% | 91.2% | 64.2% | 76.3% | 3 | 90.5% | 93.6% | % inhibition female (individual replicates) R3 [2, 12]: 92.9%; % inhibition female (individual replicates) R4 [2, 13]: 90.8%; HitlevelF ([2]; 2µM): 4
8 | C#CCCOc1ccc2ccccc2c1CNCCCCCCNCc1c(OCCC#C)ccc2ccccc12 [TCMDC-137832] | – | – | – | – | 2.13 | 1.85 µM | – | – | – | – | 1.37 | 2.88 µM | 3.94 µM | 78.9% | 82.1% | 58.7% | 86.2% | 4 | 22.9% | 24.2% | % inhibition female (individual replicates) R3 [2, 12]: 11.7%; % inhibition female (individual replicates) R4 [2, 13]: 20.0%; HitlevelF ([2]; 2µM): 0
9 | CS(=O)(=O)O.FC(F)(F)COc1c(CNCCCCCCNCc2ccc3ccccc3c2OCC(F)(F)F)ccc2ccccc12 [TCMDC-137833] | – | – | – | – | 1.9 | 1.75 µM | – | – | – | – | 0.51 | 6.57 µM | 3.32 µM | 69.2% | 70.5% | 47.4% | 77.6% | 3 | 29.5% | 27.4% | % inhibition female (individual replicates) R3 [2, 12]: 10.4%; % inhibition female (individual replicates) R4 [2, 13]: 40.2%; HitlevelF ([2]; 2µM): 0
10 | CS(=O)(=O)O.c1ccc2c(CNCCCCCCNCc3c(OCC4CC4)ccc4ccccc34)c(OCC3CC3)ccc2c1 [TCMDC-137839] | 95.2% | 96.4% | 98.9% | 103.0% | 2.29 | 1.4 µM | 78.7% | 59.7% | 91.2% | 88.3% | 1.36 | 2.36 µM | 3.2 µM | – | – | – | – | – | – | – | –
11 | Nc1nc(N)c2c(ccc3[nH]c(-c4ccccc4Cl)nc32)n1 [TCMDC-137840] | 99.1% | 101.1% | 94.6% | 101.3% | 2.01 | 1.02 µM | 54.2% | 66.8% | 50.3% | 52.5% | 0.88 | 2.32 µM | 2.04 µM | – | – | – | – | – | – | – | –
12 | COc1cc2ccccc2c(OC)c1CNCCCCCCNCc1c(OC)cc2ccccc2c1OC.CS(=O)(=O)O [TCMDC-137843] | – | – | – | – | 2.16 | 1.66 µM | – | – | – | – | 0.88 | 4.09 µM | 3.59 µM | 82.6% | 82.1% | 58.2% | 98.9% | 4 | 38.4% | 31.9% | % inhibition female (individual replicates) R3 [2, 12]: 18.8%; % inhibition female (individual replicates) R4 [2, 13]: 37.8%; HitlevelF ([2]; 2µM): 1
